Experiment: Storage stability of isolated anthocyanidins
Format: physicochemical
Description: The isolated anthos are stable when stored in amber bottles under argon at −20° C. […] However, when bound to cellulose, these compounds can be stabilized for a long period of time. Edible cellulose formulations that are used routinely in beverage and food industries are commercially available. Therefore, anthos isolated by the method described here can be readily stabilized with edible cellulose or pectin or other edible materials and used in beverages and foods to provide natural colors, as well as used as nutraceuticals and provide health benefits due to known antioxidant, antiproliferative and anticancer activities of anthos.

For anthocyanins, the “stability in solution form” value was “highly unstable”.
